From patent publication US5882881A, “Inhibition of cyst formation by cytoskeletal specific drugs” (priority 1998, dated 1999)
Entries after “also recorded” stand apart in the source; their conditions may differ.

Experiments:
human ADPKD cells = test: In vitro cyst formation in human ADPKD cells; format: cell-based
Excerpt: I have substituted human ADPKD cells for the murine CPK cells of Example 1 and produced similar results. Other cyst-forming cells are believed to also form suitable results with only minor deviations from the conditions set forth in Example 1.
Cell suspensions were separated from debris by sedimentation at unit gravity and decantation. After washing once with DMEM/F12 medium, cells were suspended in DMEM/F12 supplemented with 1.2 gm/l sodium bicarbonate, 1× insulin, transferrin and selenium (Sigma # 11184), 1% lipids supplement (Sigma # L4646) and 1× antibiotic/antimycotic (Sigma # A7292) at a density of 5×10^4 cells per ml. Two mls of the cell suspension were aliquoted into each well of a six-well plastic cell culture plates that had been precoated with 2 mls of 1% low melting point agarose in DMEM/F12 and incubated at 37° C. in a humidified atmosphere of 5% CO2 in air.
(§1) I used the in vitro cyst formation system of the present invention to analyze compounds that affect the process of cyst formation. To determine the therapeutic effectiveness of an agent, cyst-forming cells are suspended in a medium to which the agent has been added. These cells are then cultured on a solid phase without formation of a layer of cells on the surface, such as in the assay system described in Example 1. The extent to which the cells actually form cysts can be detected and compared to the extent of cyst formation expected if no agent were added. If the amount of cyst formation is lower than expected, then the agent is a good candidate for therapeutic intervention of cystic diseases.

Murine CPK Cells [1] = test: In vitro cyst formation and cyst size in suspension culture of murine CPK cells; format: cell-based, mouse; details: day 21, 24 h, final concentration per Table II (cytosine arabinoside 20 μg/ml, α-amanitin 100 ng/ml, cycloheximide 49 μg/ml, ouabain 1 mM, amiloride 1 mM, brefeldin-A 10 μg/ml, griseofulvin 350 μM, colchicine 10 μM, vinblastine 1 μM, nocodazole 30 μM, taxol 25 μM, cytochalasins 10 μM)
Na^+ K^+ -ATPase = details: triiodothyronine; ouabain 0.2 mM; cited from earlier work
Murine CPK Cells [2] = test: Cell viability, trypan blue exclusion, CPK suspension culture; details: 1.0 mM ouabain
Method: The effects of various metabolic inhibitors on cyst formation were studied in cultures derived from day 21 postnatal CPK mice. […] Taxol (25 μM), a microtubule specific inhibitor, was from Calbiochem (La Jolla, Calif.). All other chemicals were obtained from Sigma Chemical Co. Cytosine arabinoside was added at the final concentration of 20 μg/ml to inhibit DNA synthesis; α-amanitin at 100 ng/ml to inhibit RNA synthesis; cycloheximide at 40 μg/ml to inhibit protein synthesis; amiloride at 1 mM to inhibit the renal epithelial Na^+ -H^+ exchange; […]; brefeldin-A at 10 μg/ml to inhibit transport of surface proteins; griseofulvin at 350 μM to inhibit microtubule function; colchicine at 10 μM to inhibit microtubule polymerization; and cytochalasin-B and cytochalasin-D at 10 μM to depolymerize actin filaments.

Murine CPK Cells [3] = test: 3H-thymidine incorporation (DNA synthesis) in CPK cell suspension culture; format: cell-based, mouse; details: ± SD, three wells; concentrations as in Table II; control 100 ± 11; 1440 min
Method: Growth studies were performed on kidney cells derived from day 10, 21 and 28 postnatal CPK mice and their normal littermates. Immediately after cells were placed in suspension or monolayer culture, 3 μCi of ^3 H-thymidine (^3 H-dThd, specific activity 45 Ci/mmol, Amersham, Ill.) was placed in each well of the culture plate. DNA synthesis was assessed by incorporation of ^3 H-dThd over the 24 hours of culture, and trichloroacetic acid-insoluble. radioactivity was expressed as cpm/μg protein. Protein was assayed with the BCA reagent as described by the manufacturer (Pierce, Rockford, Ill.). At 24 hours of culture, an aliquot (0.2 ml) of the suspension was removed and the number of cysts counted using an inverted microscope. The number of cysts was expressed as a ratio factored for the total number of cells in the suspension at 24 hours of culture. Cyst diameter was measured at 100× using an eyepiece micrometer.
(§2) The effects of various metabolic inhibitors on cyst formation were studied in cultures derived from day 21 postnatal CPK mice. […] Taxol (25 μM), a microtubule specific inhibitor, was from Calbiochem (La Jolla, Calif.). All other chemicals were obtained from Sigma Chemical Co. Cytosine arabinoside was added at the final concentration of 20 μg/ml to inhibit DNA synthesis; α-amanitin at 100 ng/ml to inhibit RNA synthesis; cycloheximide at 40 μg/ml to inhibit protein synthesis; amiloride at 1 mM to inhibit the renal epithelial Na^+ -H^+ exchange; ouabain at 0.5 mM to inhibit Na^+ -K^+ -ATPase; brefeldin-A at 10 μg/ml to inhibit transport of surface proteins; griseofulvin at 350 μM to inhibit microtubule function; colchicine at 10 μM to inhibit microtubule polymerization; and cytochalasin-B and cytochalasin-D at 10 μM to depolymerize actin filaments.
(§3) In the presence of these metabolic inhibitors in vitro, cyst formation was noted to be either present or absent; if present, the diameters of 20 cysts from a 0.2 ml aliquot were measured. In the same samples, ^3 H-dThd incorporation was also measured as described above. […] After each wash, cell clusters were collected by centrifuging at 200×g for 1 minute and the supernatant discarded. Washed cell clusters were resuspended in the original volume of growth medium without inhibitors, placed in agarose coated wells and incubated at 37° C. in a moisture saturated incubator in 5% CO2 and air.
(§4) In this table, the mean cyst size is reported as ±SD with a measurement of twenty cysts. The ^3 H-dThd incorporation is reported as ±SD using measurements of three wells. The * indicates […] versus control. […] The entries listed as "NA" in the table indicate data that is not available.

Murine CPK Cells [4] = test: In vitro cyst formation and cyst size in suspension culture of murine CPK cells; format: cell-based, mouse
Method: At 10, 21 and 28 days after birth, mice having congenital polycystic kidney disease (CPK) and their phenotypically normal littermates were sacrificed by cervical dislocation. Kidneys were harvested aseptically and washed with DMEM/F12 (Sigma Chemical Co., St. Louis, Mo.) in a 1:1 mix. Each decapsulated kidney was chopped into cubes (1 mm) and incubated in 5 ml of collagenase solution composed of 1 mg/ml collagenase type IV (Worthington Biochemical Corporation, Freehold, N.J.), 1 mg/ml egg white trypsin inhibitor (Worthington) in 1:1 DMEM/F12.
The top 12 mls, which contained both single cells and aggregates of up to 10 cells, as assessed by inverted phase-ontrast microscopy, were placed in 2 ml aliquots in the wells of plastic culture plates (Corning, N.Y.) precoated with 1% agarose in DMEM:F12 (2 ml in each well of a 6-well plate; 1 ml in each well of a 24-well plate). Cell samples were digested with further incubation for 10 minutes in 0.05% trypsin and 0.53 mM EDTA (Gibco, BRL Gaithesburg, Md.) at 37° C. All cultures were plated at a final density of 1-3×10^4 cell, per well. For growth studies of monolayer cells, identical preparations were grown on the plastic surface of the culture plates. Both the monolayers and the cell suspensions were incubated at 37° C. in a moisture saturated incubator in 5% CO2 and air.
as §1, §2, §3, §4

neonatal CPK kidneys = details: triiodothyronine pharmacological doses; ouabain 0.2 mM; cited from earlier work

## C[C@@H]1O[C@@H](O[C@H]2C[C@@H](O)[C@]3(CO)[C@H]4[C@H](O)C[C@]5(C)[C@@H](C6=CC(=O)OC6)CC[C@]5(O)[C@@H]4CC[C@]3(O)C2)[C@H](O)[C@H](O)[C@H]1O [Ouabain]
Human ADPKD cells; human ADPKD cells, cytosine arabinoside 20 μg/ml, α-amanitin 100 ng/ml, cycloheximide 40 μg/ml, amiloride 1 mM, ouabain 0.5 mM, taxol 25 μM, colchicine 10 μM, vinblastine 1 μM, cytochalasins 10 μM
  cyst formation (in words): potent inhibitor of cyst formation; also recorded: completely block cyst formation; also recorded: cyst formation can be blocked
Human ADPKD cells; human model
  time to lumen appearance after removing the inhibitor: twenty-four
Human ADPKD cells; human model, inhibitor removed
  reversibility of inhibition of cyst formation: reversible
Murine CPK Cells [1]
  Cyst Formation (+/-): -
Na^+ K^+ -ATPase
  renal Na^+ K^+ -ATPase activity (in words): decrease
Murine CPK Cells [2]
  cell death / reduction of cell viability (in words): extensive cell death; also recorded: large scale reduction of cell viability
Murine CPK Cells [3]
  ^3 H-dThd Incorporation: 104 ± 9 % control
Murine CPK Cells [4]; mean ± SD of twenty cysts, concentrations as in Table II, control 71 ± 22
  Cyst Size: 0 μm
Murine CPK Cells [4]; murine CPK cells, 24 h suspension culture, ouabain 0.5 mM, also 1 mM, b155 taxol 25 μM, colchicine 10 μM, vinblastine 1 μM, cytochalasins 10 μM, model species not given
  cyst formation (in words): not to inhibit cyst formation in these cells; also recorded: cyst inhibiting activity was observed; also recorded: did not prevent the formation of CPK cysts
Neonatal CPK kidneys
  proximal tubular cysts maintained / effect abolished: abolished
